# In patent publication US9079929B2, “Substituted tetrahydroisoquinoline compounds as factor XIa inhibitors” (priority 2011, dated 2015):
# Counter-ions that a name gives are not always drawn.
# Target: human Factor XIa (Homo sapiens (Human), UniProt P03951)
# Assay: Factor XIa enzyme inhibition assay (chromogenic substrate S-2366)
# Type: biochemical
# Conditions: purified human Factor XIa, substrate S-2366, pH 7.4
# Protocol: The results of this assay are expressed as the inhibitory constant, Ki.
# Values of Ki were determined by allowing the protease to react with the substrate in the presence of the inhibitor. Reactions were allowed to go for periods of 20-180 minutes (depending on the protease) and the velocities (rate of absorbance or fluorescence change versus time) were measured. The following relationships were used to calculate Ki values:
# vs/vo=A+((B−A)/1+((IC50/(I)n))); and […]
# Chain of human Factor XIa (P03951 whole entry, looked up): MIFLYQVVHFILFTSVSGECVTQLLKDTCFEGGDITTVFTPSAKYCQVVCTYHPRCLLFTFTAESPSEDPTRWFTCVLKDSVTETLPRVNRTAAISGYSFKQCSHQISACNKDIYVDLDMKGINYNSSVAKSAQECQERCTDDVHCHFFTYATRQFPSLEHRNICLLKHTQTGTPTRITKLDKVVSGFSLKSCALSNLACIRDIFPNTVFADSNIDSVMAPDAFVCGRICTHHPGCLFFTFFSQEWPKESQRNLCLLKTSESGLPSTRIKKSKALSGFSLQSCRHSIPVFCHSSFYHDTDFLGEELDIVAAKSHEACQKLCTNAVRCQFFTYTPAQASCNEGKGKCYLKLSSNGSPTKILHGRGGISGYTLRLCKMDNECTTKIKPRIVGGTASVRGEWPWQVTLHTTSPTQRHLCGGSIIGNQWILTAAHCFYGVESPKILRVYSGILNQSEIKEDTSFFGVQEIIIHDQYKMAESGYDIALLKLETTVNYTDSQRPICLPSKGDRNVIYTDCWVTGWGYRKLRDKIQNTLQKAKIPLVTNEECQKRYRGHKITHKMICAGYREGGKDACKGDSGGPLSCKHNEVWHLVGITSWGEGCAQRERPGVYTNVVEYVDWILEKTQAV
# Chain of human Factor XIa (P03951 whole entry partner, looked up): as the sequence (P03951 whole entry, looked up) above
row,SMILES,Ki
1,"COCCNC(=O)c1cccc2c1CCN(C(=O)/C=C/c1cc(Cl)ccc1-n1cnnn1)C2C(=O)Nc1ccc(C(=O)O)cc1 (stereo not drawn) [Example 3, (E)-4-(2-(3-(5-Chloro-2-(1H-tetrazol-1-yl)phenyl)acryloyl)-5-(2-methoxyethylcarbamoyl)-1,2,3,4-tetrahydroisoquinoline-1-carboxamido)benzoic acid]",0.0213 µM
2,"CS(=O)(=O)Nc1cccc2c1CCN(C(=O)/C=C/c1c(-n3cnnn3)ccc(Cl)c1F)C2C(=O)Nc1ccc(C(=O)O)cc1 (stereo not drawn) [Example 9, (E)-4-(2-(3-(3-chloro-2-fluoro-6-(1H-tetrazol-1-yl)phenyl)acryloyl)-5-(methylsulfonamido)-1,2,3,4-tetrahydroisoquinoline-1-carboxamido)benzoic acid]",< 0.005 µM
3,CCOC(=O)CCCNC(=O)c1cccc2c1CCN(C(=O)/C=C/c1c(-n3cnnn3)ccc(Cl)c1F)C2C(=O)Nc1ccc(F)cc1 (stereo not drawn) [Example 14],0.58 µM
4,CCOC(=O)[C@H]1CCCN(C(=O)c2cccc3c2CCN(C(=O)/C=C/c2c(-n4cnnn4)ccc(Cl)c2F)C3C(=O)Nc2ccc(NC(=O)OC)cc2)C1 (stereo partly drawn) [Example 16],0.332 µM
5,CC(C)(C)OC(=O)c1ccc(NC(=O)C2c3cccc(C(=O)N4CCN(C(=O)OC(C)(C)C)CC4)c3CCN2C(=O)/C=C/c2c(-n3cnnn3)ccc(Cl)c2F)cc1 (stereo not drawn) [Example 24],0.17 µM
6,O=C(O)c1ccc(NC(=O)C2c3cccc(C(=O)N4CCNCC4)c3CCN2C(=O)/C=C/c2c(-n3cnnn3)ccc(Cl)c2F)cc1 (stereo not drawn) [Example 29],0.553 µM
7,O=C(O)c1ccc(NC(=O)C2c3cccc(C(=O)N4CCNCC4)c3CCN2C(=O)/C=C/c2c(-n3cnnn3)ccc(Cl)c2F)cc1 (stereo not drawn) [Example 30],< 0.005 µM
8,"COc1ccc(-c2cccc3c2CCN(C(=O)/C=C/c2c(-n4cnnn4)ccc(Cl)c2F)C3C(=O)Nc2ccc(C(=O)O)cc2)c(Cl)c1 (stereo not drawn) [Example 47, (E)-4-(2-(3-(3-chloro-2-fluoro-6-(1H-tetrazol-1-yl)phenyl)acryloyl)-5-(2-chloro-4-methoxyphenyl)-1,2,3,4-tetrahydroisoquinoline-1-carboxamido)benzoic acid]",< 0.005 µM
9,"COC(=O)Nc1ccc(-c2cccc3c2CCN(C(=O)/C=C/c2c(-n4cnnn4)ccc(Cl)c2F)[C@H]3C(=O)Nc2ccc(F)cc2)cc1 [Example 50, (R,E)-Methyl 4-(2-(3-(3-chloro-2-fluoro-6-(1H-tetrazol-1-yl)phenyl)acryloyl)-1-(4-fluorophenylcarbamoyl)-1,2,3,4-tetrahydroisoquinolin-5-yl)phenylcarbamate]",3.37 µM
10,CNC(=O)c1ccc(-c2cccc3c2CCN(C(=O)/C=C/c2c(-n4cnnn4)ccc(Cl)c2F)C3C(=O)NCC(=O)OC)cc1 (stereo not drawn) [Example 61],0.342 µM
11,CC[C@H](C)NC(=O)C1c2cccc(-c3ccc(C(=O)NC)cc3)c2CCN1C(=O)/C=C/c1c(-n2cnnn2)ccc(Cl)c1F (stereo partly drawn) [Example 65],0.0492 µM
12,CNC(=O)c1ccc(-c2cccc3c2CCN(C(=O)/C=C/c2c(-n4cnnn4)ccc(Cl)c2F)C3C(=O)NCc2nccn2C)cc1 (stereo not drawn) [Example 66],0.534 µM
13,CNC(=O)c1ccc(-c2cccc3c2CCN(C(=O)/C=C/c2c(-n4cnnn4)ccc(Cl)c2F)C3C(=O)Nc2ccc(C(=O)O)cc2)cn1 (stereo not drawn) [Example 78],< 0.005 µM
14,CNC(=O)c1ccc(-c2cccc3c2CCN(C(=O)/C=C/c2c(-n4cnnn4)ccc(Cl)c2F)C3C(=O)Nc2ccc3c(c2)CN=N3)cc1 (stereo not drawn) [Example 80],0.0201 µM
15,CN(C)CCNC(=O)c1ccc(-c2cccc3c2CCN(C(=O)/C=C/c2c(-n4cnnn4)ccc(Cl)c2F)C3C(=O)Nc2ccc(C(=O)OC(C)(C)C)cc2)cc1 (stereo not drawn) [Example 89],< 0.005 µM
16,"CN(C)CCNC(=O)c1ccc(-c2cccc3c2CCN(C(=O)/C=C/c2c(-n4cnnn4)ccc(Cl)c2F)[C@H]3C(=O)Nc2ccc(C(=O)OCCN(C)C)cc2)cc1 [Example 93, (R,E)-2-(dimethylamino)ethyl 4-(2-(3-(3-chloro-2-fluoro-6-(1H-tetrazol-1-yl)phenyl)acryloyl)-5-(4-((2-(dimethylamino)ethyl)carbamoyl)phenyl)-1,2,3,4-tetrahydroisoquinoline-1-carboxamido)benzoate; bis-TFA salt]",0.951 µM
17,CN(C)CCNC(=O)c1ccc(-c2cccc3c2CCN(C(=O)/C=C/c2c(-n4cnnn4)ccc(Cl)c2F)[C@H]3C(=O)Nc2ccc(C(=O)OCc3ccccn3)cc2)cc1 [Example 98],0.132 µM
18,"O=C(O)c1ccc(NC(=O)C2c3cccc(OC4CCNCC4)c3CCN2C(=O)/C=C/c2c(-n3cnnn3)ccc(Cl)c2F)cc1 (stereo not drawn) [Example 108, (E)-4-(2-(3-(3-Chloro-2-fluoro-6-(1H-tetrazol-1-yl)phenyl)acryloyl)-5-(piperidin-4-yloxy)-1,2,3,4-tetrahydroisoquinoline-1-carboxamido)benzoic acid, TFA salt]",< 0.005 µM
19,CC(=O)c1ccc(Cl)c(F)c1/C=C/C(=O)N1CCc2c(-c3ccc(C(N)=O)cc3)cccc2[C@@H]1C(=O)Nc1ccc(C(=O)O)cc1 [Example 120],0.291 µM
20,"CN(C)CCOc1cccc2c1CCN(C(=O)/C=C/c1c(-n3cnnn3)ccc(Cl)c1F)C2C(=O)Nc1ccc(C(=O)O)cc1 (stereo not drawn) [Example 132, (E)-4-(2-(3-(3-chloro-2-fluoro-6-(1H-tetrazol-1-yl)phenyl)acryloyl)-5-(2-(dimethylamino)ethoxy)-1,2,3,4-tetrahydroisoquinoline-1-carboxamido)benzoic acid, TFA salt]",< 0.005 µM
21,"CC(=O)c1ccc(Cl)c(F)c1/C=C/C(=O)N1CCc2c(O)cccc2C1C(=O)Nc1ccc(C(=O)O)cc1 (stereo not drawn) [Example 146, (E)-4-(2-(3-(6-acetyl-3-chloro-2-fluorophenyl)acryloyl)-5-hydroxy-1,2,3,4-tetrahydroisoquinoline-1-carboxamido)benzoic acid]",0.0248 µM
22,"CC(=O)c1ccc(Cl)c(F)c1/C=C/C(=O)N1CCc2c(-c3ccc(C(=O)NCCN(C)C)cc3)cccc2[C@@H]1C(=O)Nc1ccc(C(=O)O)cc1 [Example 150, (R,E)-4-(2-(3-(6-Acetyl-3-chloro-2-fluorophenyl)acryloyl)-5-(4-(2-(dimethylamino)ethylcarbamoyl)phenyl)-1,2,3,4-tetrahydroisoquinoline-1-carboxamido)benzoic acid, TFA salt]",0.037 µM
23,"CCOC(=O)c1ccc(NC(=O)C2c3cccc(OCCC4CCN(C)CC4)c3CC(C)(C)N2C(=O)/C=C/c2c(-n3cnnn3)ccc(Cl)c2F)cc1 (stereo not drawn) [Example 152, (E)-ethyl 4-(2-(3-(3-chloro-2-fluoro-6-(1H-tetrazol-1-yl)phenyl)acryloyl)-3,3-dimethyl-5-(2-(1-methylpiperidin-4-yl)ethoxy)-1,2,3,4-tetrahydroisoquinoline-1-carboxamido)benzoate, TFA salt]",0.1 µM
24,"CCOC(=O)c1ccc(NC(=O)[C@H]2c3cccc(OCCC4CCNCC4)c3CCN2C(=O)/C=C/c2c(-n3cnnn3)ccc(Cl)c2F)cc1 [Example 160, (R,E)-ethyl 4-(2-(3-(3-chloro-2-fluoro-6-(1H-tetrazol-1-yl)phenyl)-acryloyl)-5-(2-(piperidin-4-yl)ethoxy)-1,2,3,4-tetrahydroisoquinoline-1-carboxamido)benzoate, TFA salt]",3.53 µM
25,"Cn1nccc1-c1cccc2c1CCN(C(=O)/C=C/c1c(-n3cnnn3)ccc(Cl)c1F)C2C(=O)Nc1ccc(C(=O)O)cc1 (stereo not drawn) [Example 173, (E)-4-(2-(3-(3-Chloro-2-fluoro-6-(1H-tetrazol-1-yl)phenyl)acryloyl)-5-(1-methyl-1H-pyrazol-5-yl)-1,2,3,4-tetrahydroisoquinoline-1-carboxamido)benzoic acid]",< 0.005 µM
26,CCOC(=O)c1ccc(NC(=O)C2c3cccc(-c4ccc(C(=O)NC)nc4)c3CCN2C(=O)/C=C/c2c(-n3cnnn3)ccc(Cl)c2F)cc1 (stereo not drawn) [Example 188],3.86 µM
27,CN(C)c1ccc(-c2cccc3c2CCN(C(=O)/C=C/c2c(-n4cnnn4)ccc(Cl)c2F)C3C(=O)Nc2ccc(C(=O)O)cc2)cn1 (stereo not drawn) [Example 191],< 0.005 µM
